# Source: PubChem BioAssay AID588780 (Sanford-Burnham Center for Chemical Genomics, 2011)
# Calls of active or inactive are those of the source.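 Rule for the calls: active = compounds whose fitted half-maximal concentration in the cell-protection dose series is at or below a set limit; inactive = the rest.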
# Tested on: H9c2 cardiomyocytes, 2-deoxyglucose stress, ATP luminescence, 2 h
# Experiment: H9c2 cell survival under 2-deoxyglucose stress – uHTS hits, dose response (AID 588780)
row,SMILES,IC50
1,Cc1ccc(-c2csc(NC(=O)Cn3[nH]c(=O)c4ccccc4c3=O)n2)cc1,13.8 µM
2,CC1(C)CC2CC(C)(CN2C(=O)COC(=O)Cn2[nH]c(=O)c3ccccc3c2=O)C1 (stereo not given),> 79 µM (inactive)
3,Cc1cc(=O)oc2cc(OCC(=O)N3CCN(C(=O)C4COc5ccccc5O4)CC3)c(Cl)cc12 (stereo not given),12.7 µM
4,CN(CC(=O)Nc1ccccc1Cl)C(=O)CCc1nc2ccccc2c(=O)[nH]1,38 µM (inactive)
5,COc1ccc(-c2cc(C(=O)N(C)Cc3ccc(OC)c(OC)c3OC)c3ccccc3n2)cc1OC,10.4 µM
6,O=C(CCc1nc2ccccc2c(=O)[nH]1)OCC(=O)N1CCc2ccccc21,> 79 µM (inactive)
7,Cc1sc2nc(CSCC(=O)N(CCC#N)c3ccccc3F)[nH]c(=O)c2c1C,27.9 µM
8,O=C(O)c1nn(CCOc2ccccc2F)c(=O)c2ccccc12,25.7 µM
9,Cc1sc2nc(SCC(=O)N3CCOCC3)[nH]c(=O)c2c1C,> 79 µM (inactive)
10,O=C(N/N=C/c1ccccn1)c1[nH]c2ccc([N+](=O)[O-])cc2c1-c1ccccc1,13.2 µM
11,CCOC(=O)Cc1csc(NC(=O)NC2(C(F)(F)F)Oc3ccc(Cl)cc3O2)n1 (stereo not given),> 79 µM (inactive)
12,COC(=O)c1cc(NC(=O)Nc2cc(OC)ccc2OC)cc(C(=O)OC)c1,38.4 µM (inactive)
13,COc1ccccc1OCC(=O)N/N=C/c1cccc2cccnc12,49.2 µM (inactive)
14,CCc1cc(C(=O)Nc2nc(-c3ccccn3)cs2)sc1C,> 79 µM (inactive)
15,Cc1cc(Br)cc(C=Nc2ccc(N3CCOCC3)cc2)c1O,58.4 µM (inactive)
16,CC(C)(C)OC(=O)C[C@@H]1C/C=C\C[C@@H](CC(=O)N[C@@H](CO)Cc2ccccc2)C(=O)NC[C@@H](c2ccccc2)OC1=O,11.9 µM
17,O=C(COc1ccc(Cl)cc1)NCc1n[nH]c(=O)c2ccccc12,> 79 µM (inactive)
18,CCCCn1nc(NC(=O)c2cccs2)c2cc3cc(OC)ccc3nc21,> 79 µM (inactive)
19,COCCn1ccc2c(OCC(=O)Nc3ccccc3OC)cccc2c1=O,20.8 µM
20,CCCCCCn1c(C)nc2c(c1=O)c1nc3ccccc3nc1n2/N=C/c1ccco1,> 79 µM (inactive)
21,C=CCOC(=O)COc1ccc2c3c(c(=O)oc2c1)CCCC3,28.1 µM
22,CCOc1ccc2[nH]c(=O)c(CN(Cc3nnnn3Cc3ccco3)C3CCCCC3)cc2c1,> 79 µM (inactive)
23,O=C(OCC(=O)N1CCCCCC1)c1n[nH]c(=O)c2ccccc12,> 79 µM (inactive)
24,Cc1ccc(-c2nn3c(-c4ccco4)nnc3c3ccccc23)cc1S(=O)(=O)NCC1CCCO1 (stereo not given),23.3 µM

row,SMILES,IC50
1,CCOC(=O)c1ccc(-c2ccc3ncnc(NCc4csc(C)n4)c3c2)o1,> 79 µM (inactive)
2,O=C1c2ccccc2NC(c2cn[nH]c2-c2ccccc2)N1O (stereo not given),> 79 µM (inactive)
3,CCOc1ccc(NC(=O)c2cc3c(C)nc4ccccc4c3o2)cc1,17.1 µM
4,CC(C)(C)OC(=O)NCCCCCNC(=O)c1[nH]cnc1C(=O)Nc1ccc(Cl)cc1,> 79 µM (inactive)
5,CCOC(=O)c1cc2c(=O)n3ccccc3nc2n(Cc2ccco2)c1=NC(=O)c1cccnc1,22.3 µM
6,FC(F)(F)c1nnc2ccc(N3CCCC3)nn12,> 79 µM (inactive)
7,COc1ccc(-c2csc(NC(=O)c3cccc(N4C(=O)CCC4=O)c3)n2)cc1OC,10.6 µM
8,O=C(CCc1nc2ccccc2c(=O)[nH]1)N1CCN(S(=O)(=O)c2ccccc2Br)CC1,> 79 µM (inactive)
9,COc1cc2[nH]c(=O)n3nc(-c4ccccc4)nc3c2cc1OC,> 79 µM (inactive)
10,CNS(=O)(=O)c1ccc2nc(NC(=O)/C=C/c3ccco3)sc2c1,> 79 µM (inactive)
11,COc1cccc(NC(=O)COc2cccc3c2CCNC3=O)c1,54.5 µM (inactive)
12,COC(=O)c1ccc(C(NC(=O)OCc2ccccc2)/C(C)=C/[C@@H](C)C(=O)NCc2ccc(OC)c(OC)c2)cc1 (stereo not given in full),22.8 µM
13,O=c1c2ccccc2oc2nc(-c3ccco3)n(Cc3ccccc3)c(=O)c12,> 79 µM (inactive)
14,Cc1cc(C)c(C)c(S(=O)(=O)N2CCN(C(=O)CCc3nc4ccccc4c(=O)[nH]3)CC2)c1C,> 79 µM (inactive)
15,Cc1nc(SCC(=O)N2CCN(c3ccccc3)CC2)c2oc3ccccc3c2n1,13.8 µM
16,CC1CCCC(C)N1C(=O)CSc1nc2ccccc2c(=O)[nH]1 (stereo not given),> 79 µM (inactive)
17,COCCn1nnnc1C(C(C)C)N(Cc1cccnc1)Cc1cc2cc(OC)ccc2[nH]c1=O (stereo not given),> 79 µM (inactive)
18,CCCc1cc2c(cc1NC(=O)c1ccc(Br)cc1)OCO2,29.3 µM
19,COc1ccc(NC(=O)N(C)[C@H]2C[C@H]3c4[nH]c5ccc(-c6ccc7c(c6)OCO7)cc5c4CCN3C[C@H]2[C@H](C)O)cc1,> 79 µM (inactive)
20,Cc1ccc(CN(C)C(=O)COC(=O)CSc2ccc(C(N)=O)cc2[N+](=O)[O-])cc1,31.3 µM (inactive)
21,O=C(Cc1n[nH]c(=O)c2ccccc12)OCC(=O)c1ccccc1,> 79 µM (inactive)
22,CCC(C)N1C(=O)S/C(=C/c2ccc3c(c2)n(C)c(=O)n3C)C1=O (stereo not given),> 79 µM (inactive)
23,COCCNC(=O)COC(=O)c1ccc(OCC(=O)Nc2ccccc2OC)c(OC)c1,22.9 µM
24,O=C1N[C@H]2CC=C[C@H]2Nc2ccccc21,> 79 µM (inactive)

row,SMILES,IC50
1,O=C(Nc1nc(-c2ccccn2)cs1)c1ccc(-c2ccccc2F)o1,> 79 µM (inactive)
2,CCc1c(C)nc(Nc2nc(C)c3ccc(OC)cc3n2)[nH]c1=O,> 79 µM (inactive)
3,O=C(NCC(=O)N(Cc1cccs1)C(C(=O)NC1CCCCC1)c1ccco1)c1cccs1 (stereo not given),15.3 µM
4,O=C(NNC(=O)c1cc2cc(Br)ccc2oc1=O)c1ccc(O)cc1O,31.7 µM (inactive)
5,COc1ccc(-c2ccc3[nH]c4c(c3c2)CCN2C[C@H]3[C@H](C)ON(C)[C@H]3C[C@@H]42)cc1,46.8 µM (inactive)
6,COc1ccccc1C(=O)NC(=O)COC(=O)Cn1[nH]c(=O)c2ccccc2c1=O,> 79 µM (inactive)
7,COc1ccc(OC)c(/C=N/NC(=O)c2cc3c(OC)c(OC)ccc3[nH]2)c1,> 79 µM (inactive)
8,Cc1cc(C)cc(NC(=O)CSc2ccc(-c3ccccn3)nn2)c1,> 79 µM (inactive)
9,O=C(N/N=C/c1ccc2c(c1)OCO2)c1ccc(NC(=O)c2ccccc2Cl)cc1,16.2 µM
10,O=C(OCc1nnc(-c2ccccc2)o1)c1ccc([N+](=O)[O-])s1,24.8 µM
11,O=C(CSC1=NNC(c2ccccn2)S1)Nc1cccc(Cl)c1 (stereo not given),> 79 µM (inactive)
12,COc1cc(CN2C[C@@H](CO)O[C@@H](n3cnc4c(Nc5ccccc5)ncnc43)C2)cc(OC)c1OC,12.7 µM
13,COc1cc(/C=C/c2nc(-c3ccccc3O)n[nH]2)cc(OC)c1OC,> 79 µM (inactive)
14,O=C(COC(=O)CCc1nc2ccccc2c(=O)[nH]1)NC(c1ccccc1)c1ccccc1,> 79 µM (inactive)
15,COc1cc(C(=O)Nc2nc(-c3cccs3)cs2)cc(OC)c1OC,7.2 µM
16,Cc1nn(-c2ccccc2)c(Cl)c1C(=O)NNC(=O)c1ccccc1O,> 79 µM (inactive)
17,CC(C)(C)OC(=O)NCC12C=CC(O1)C1C(=O)N(Cc3ccccc3)C(=O)C12 (stereo not given),> 79 µM (inactive)
18,Cc1ccc(C)c(S(=O)(=O)N(C(=O)c2ccncc2)c2ccc(OC(=O)c3ccncc3)cc2)c1,> 79 µM (inactive)
19,CCOc1ccc(S(=O)(=O)N(C)CCO)cc1-c1nc2c(C(C)(C)C)nn(C)c2c(=O)[nH]1,26.9 µM
20,OC1CCN(c2c3c(nc4cc(-c5cccc(F)c5)nn24)CCCC3)CC1,23.6 µM
21,CCn1c(O)c(/C=N/N=C/c2ccccc2)c2ccc(C3=NNC(=O)CC3)cc21,> 79 µM (inactive)
22,O=c1oc(-c2ccco2)nc2c1cnn2-c1ccccc1,> 79 µM (inactive)
23,Nc1ccc2c(c1)[nH]c(=O)c1ccccc12,> 79 µM (inactive)
24,COc1ccc(NC(=O)CCCc2nc3ccccc3c(=O)[nH]2)cc1Cl,> 79 µM (inactive)

row,SMILES,IC50
1,COc1ccc(Cc2n[nH]c(=O)c3ccccc23)cc1OC,> 79 µM (inactive)
2,CC(=O)c1ccc(-c2[nH]c3ccccc3c2CCN2C(=O)c3ccccc3C2=O)cc1,> 79 µM (inactive)
3,COc1ccc(NC(=O)CN(C)C(=O)Cc2n[nH]c(=O)c3ccccc23)cc1,> 79 µM (inactive)
4,COc1ccc(OC)c(C(=O)COC(=O)c2ccc([N+](=O)[O-])o2)c1,> 79 µM (inactive)
5,O=c1[nH]nc(Cc2ccccc2)c2ccccc12,> 79 µM (inactive)
6,O=C(COc1cccc2c1CCNC2=O)Nc1ccc(F)cc1,> 79 µM (inactive)
7,CC(C)(C)NC(=O)COC(=O)c1c2c(nc3ccccc13)CCC2,15.1 µM
8,COc1ccc(-c2cc(C(=O)N(C)Cc3nc4ccccc4c(=O)[nH]3)c3ccccc3n2)cc1OC,> 79 µM (inactive)
9,CC1(C)Cc2c(C#N)c(SCc3nc4ccccc4[nH]3)nc(N3CCOCC3)c2CO1,> 79 µM (inactive)
10,O=C(Nc1cc(=O)c2ccccc2o1)N1CCCCC1,> 79 µM (inactive)
11,COc1cc(/C=N/NC(=O)c2ccccc2)ccc1OS(=O)(=O)c1ccccc1,9.14 µM
12,CCCn1nc(C(=O)OCC(=O)c2c(N)n(C)c(=O)n(C)c2=O)c2ccccc2c1=O,56.6 µM (inactive)
13,COc1cccc(-c2cnc3c(NC=O)cc(-c4cccc(C(=O)N(C)C)c4)cn23)c1,12.3 µM
14,O=C(CN1C(=O)C2CC=CCC2C1=O)Nc1nc(-c2ccc(F)c(F)c2)cs1 (stereo not given),> 79 µM (inactive)
15,Cc1ccc(-c2nnc3ccc(SCC(=O)N4CCCc5ccccc54)nn23)cc1,> 79 µM (inactive)
16,CC(=O)N1CCN(C(=O)CCc2nc3ccccc3c(=O)[nH]2)CC1,> 79 µM (inactive)
17,O=C(Nc1cccc(Cl)c1)c1nc[nH]c1C(=O)NCCCNC(=O)c1[nH]cnc1C(=O)Nc1cccc(Cl)c1,> 79 µM (inactive)
18,CN1CCc2nc3ccccc3c(C(=O)OCC(=O)N(CCC#N)c3ccccc3)c2C1,67.6 µM (inactive)
19,CCOc1cccc(Nc2cc3n(c(=O)n2)CCc2cc(OC)c(OC)cc2-3)c1,29.9 µM
20,Cn1c(=O)c2c(nc(NCc3cccnc3)n2Cc2cccc(C(F)(F)F)c2)n(C)c1=O,> 79 µM (inactive)
21,COc1ccccc1C(=O)Nc1nc(-c2ccc3c(c2)OCCO3)cs1,> 79 µM (inactive)
22,COc1cc2c(C#CCCO)c(-c3ccsc3)oc(=O)c2cc1OC,> 79 µM (inactive)
23,O=C(CCS(=O)(=O)c1ccccc1)Nc1nc(-c2ccccn2)cs1,31.3 µM (inactive)
